# Assay results from ChEMBL document CHEMBL5038605, “Probing the Allosteric Inhibition Mechanism of a Spike Protein Using Molecular Dynamics Simulations and Active Compound Identifications” (J Med Chem, 2022).
# Activity calls are given as the source filed them. No cut-off for these calls is given here.
# Tested on: SARS-CoV-2
# Experiment: Antiviral activity against SARS-CoV-2 infected in vero E6 cells assessed as inhibition of viral replication at 100 uM preincubated for 1 hr followed by viral infection for 2 hrs by qRT-PCR analysis
# Type: functional, organism-based
# Conditions: Severe acute respiratory syndrome coronavirus 2, Vero C1008, time 3.0 hrs
row,Structure (SMILES),Activity
1,O=C(O)c1cccc(-c2ccc(CNCCc3ccccc3)o2)c1,Active

# Tested on: SARS-CoV-2
# Experiment: Antiviral activity against SARS-CoV-2 infected in vero E6 cells assessed as inhibition of viral replication at 100 uM preincubated for 1 hr followed by viral infection for 24 hrs by qRT-PCR analysis
# Type: functional, organism-based
# Conditions: Severe acute respiratory syndrome coronavirus 2, Vero C1008, time 25.0 hrs
row,Structure (SMILES),Activity
1,Cc1nn(-c2ccccc2)c(Oc2ccccc2)c1CCC(=O)Nc1ccccc1,Active
2,O=C(O)c1ccc(OCc2cccc3ccccc23)cc1,Active
3,CCn1ccc(-c2nc(C)nn2-c2cc(S(N)(=O)=O)ccc2F)cc1=O,Active
4,CC(=O)N1CCN(c2nc(C)cc(Nc3ccccc3)n2)CC1,Active
5,O=C(O)c1cccc(-c2ccc(CNCCc3ccccc3)o2)c1,Active
6,Cn1cc(-c2cc3n(n2)CCC(=O)N3CC(=O)NCc2ccco2)c2ccccc21,Active
7,Cc1ccc2nc(C34CC5CC(CC(C5)C3)C4)cc(C(=O)O)c2c1,Active
